Reference: ChEMBL document CHEMBL1153182, “Novel enoyl-ACP reductase (FabI) potential inhibitors of Escherichia coli from Chinese medicine monomers” (Bioorg Med Chem Lett, 2010)
pKi: −log10 of the molar value. Values after ≈ are worked out from the molar mass of the structure shown. Active and inactive are the calls of the source. The rule behind the calls is not given here.

What was measured:
[1] = target: T1, Enoyl-[acyl-carrier-protein] reductase [NADH] FabI (Escherichia coli K-12) (UniProt P0AEK4); test: Inhibition of Escherichia coli MG1655 enoyl-ACP reductase overexpressed in Escherichia coli M15 assessed as oxidation of NADH to NAD+ at 5 uM after 5 mins
T1 sequence (whole entry): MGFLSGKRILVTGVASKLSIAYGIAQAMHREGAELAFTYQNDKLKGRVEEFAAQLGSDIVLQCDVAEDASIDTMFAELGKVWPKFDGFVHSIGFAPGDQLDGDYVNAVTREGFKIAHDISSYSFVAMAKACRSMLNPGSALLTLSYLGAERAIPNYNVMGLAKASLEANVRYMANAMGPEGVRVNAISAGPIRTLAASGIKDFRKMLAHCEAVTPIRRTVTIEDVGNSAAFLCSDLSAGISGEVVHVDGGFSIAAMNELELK

Escherichia coli [2] = test: Antibacterial activity against fabI-overexpressing Escherichia coli M15; type: functional
Escherichia coli [3] = test: Antibacterial activity against Escherichia coli M15; type: functional
Escherichia coli [4] = test: Antibacterial activity against Escherichia coli M15 containing pQE30 expression vector; type: functional
Escherichia coli [5] = test: Antibacterial activity against Escherichia coli MG1655; type: functional
[6] = target: T2, Enoyl-[acyl-carrier-protein] reductase [NADH] FabI (Escherichia coli K-12, UniProt P0AEK4); test: Inhibition of Escherichia coli MG1655 enoyl-ACP reductase overexpressed in Escherichia coli M15 assessed as oxidation of NADH to NAD+ after 5 mins
T2 sequence (P0AEK4 whole entry): T1 sequence (whole entry)

[7] = target: T1, Enoyl-[acyl-carrier-protein] reductase [NADH] FabI (Escherichia coli K-12); test: Uncompetitive inhibition of Escherichia coli MG1655 enoyl-ACP reductase overexpressed in Escherichia coli M15 assessed as oxidation of NADH to NAD+ after 5 mins by Lineweaver-Burke plot
Escherichia coli [8] = test: Ratio of MIC90 for fabI-overexpressing Escherichia coli M15 to MIC90 for Escherichia coli M15 containing pQE30 expression vector; type: functional
Escherichia coli [9] = test: Ratio of MIC90 for fabI-overexpressing Escherichia coli M15 to MIC90 for Escherichia coli M15; type: functional

| Compound | Activity [1] | MIC90 (Escherichia coli [2]) [µg/mL] | MIC90 (Escherichia coli [3]) [µg/mL] | MIC90 (Escherichia coli [4]) [µg/mL] | MIC90 (Escherichia coli [5]) [µg/mL] | pKi [6] | Activity [7] | Ratio (Escherichia coli [8]) | Ratio (Escherichia coli [9]) |
| --- | --- | --- | --- | --- | --- | --- | --- | --- | --- |
| OC[C@H]1O[C@@H](Oc2cc(O)cc(/C=C/c3ccc(O)cc3)c2)[C@H](O)[C@@H](O)[C@@H]1O | Active | – | – | – | – | – | – | – | – |
| CC[C@H]1OC(=O)[C@H](C)[C@@H](O[C@H]2C[C@@](C)(OC)[C@@H](O)[C@H](C)O2)[C@H](C)[C@@H](O[C@@H]2O[C@H](C)C[C@H](N(C)C)[C@H]2O)[C@](C)(O)C[C@@H](C)C(=O)[C@H](C)[C@@H](O)[C@]1(C)O [ERYTHROMYCIN] | – | 16 (≈ 21.8 µM) | 16 (≈ 21.8 µM) | 16 (≈ 21.8 µM) | 16 (≈ 21.8 µM) | – | – | – | – |
| Oc1cc(Cl)ccc1Oc1ccc(Cl)cc1Cl [TRICLOSAN] | – | > 500 | 2.9 (≈ 10 µM) | 2.9 (≈ 10 µM) | 2.9 (≈ 10 µM) | – | – | – | – |
| CC(C)=CCOc1c2occc2cc2ccc(=O)oc12 | Active | – | – | – | – | – | – | – | – |
| CN[C@@H]1[C@H](O)[C@H](NC)[C@H]2O[C@@]3(O)C(=O)C[C@@H](C)O[C@H]3O[C@@H]2[C@H]1O [SPECTINOMYCIN] | – | 20 (≈ 60.2 µM) | 20 (≈ 60.2 µM) | 20 (≈ 60.2 µM) | 20 (≈ 60.2 µM) | – | – | – | – |
| O=c1c(-c2ccc(O)cc2)coc2cc(O)cc(O)c12 [GENISTEIN] | Active | > 500 | 378 (≈ 1400 µM) | 378 (≈ 1400 µM) | 378 (≈ 1400 µM) | – | – | – | – |
| O=c1cc(-c2ccc(O)c(O)c2)oc2cc(O)cc(O)c12 [LUTEOLIN] | – | – | – | – | – | 5.15 | Active | – | – |
| CO[C@H]1/C=C/O[C@@]2(C)Oc3c(C)c(O)c4c(O)c(c(/C=N/N5CCN(C)CC5)c(O)c4c3C2=O)NC(=O)/C(C)=C\C=C\[C@H](C)[C@H](O)[C@@H](C)[C@@H](O)[C@@H](C)[C@H](OC(C)=O)[C@@H]1C [RIFAMPIN] | – | 128 (≈ 156 µM) | 128 (≈ 156 µM) | 128 (≈ 156 µM) | 128 (≈ 156 µM) | – | – | – | – |
| O=C(N[C@H](CO)[C@H](O)c1ccc([N+](=O)[O-])cc1)C(Cl)Cl [CHLORAMPHENICOL] | – | 8 (≈ 24.8 µM) | 8 (≈ 24.8 µM) | 8 (≈ 24.8 µM) | 8 (≈ 24.8 µM) | – | – | – | – |
| GENTAMICIN | – | 8 | 8 | 8 | 8 | – | – | – | – |
| COc1cc(/C=C/C(=O)CC(=O)/C=C/c2ccc(O)c(OC)c2)ccc1O [CURCUMIN] | – | > 500 | 73.7 (≈ 200 µM) | 73.7 (≈ 200 µM) | 73.7 (≈ 200 µM) | 4.83 | Active | 7 | 7 |
